Data from paper PMC11474200, “Probing the nucleobase selectivity of RNA polymerases with dual-coding substrates” (The Journal of Biological Chemistry, 2024).
Where two headings read alike, the source gives them in different places.

Assays:
Format in all cases: biochemical
Mt-DdRP = target: T1, Mt-DdRP (Homo sapiens, UniProt O00411); test: single-nucleotide addition, denaturing PAGE; settings: elongation complex, 100 μM analog, 1 min, 10 mM MgCl2, pH 7.5, 25 °C
T1 construct: gene POLRMT; expressed in E. coli from pRP009, Ni-, heparin and S-sepharose purified; in assembled elongation complex
T1 sequence (O00411 42-1230): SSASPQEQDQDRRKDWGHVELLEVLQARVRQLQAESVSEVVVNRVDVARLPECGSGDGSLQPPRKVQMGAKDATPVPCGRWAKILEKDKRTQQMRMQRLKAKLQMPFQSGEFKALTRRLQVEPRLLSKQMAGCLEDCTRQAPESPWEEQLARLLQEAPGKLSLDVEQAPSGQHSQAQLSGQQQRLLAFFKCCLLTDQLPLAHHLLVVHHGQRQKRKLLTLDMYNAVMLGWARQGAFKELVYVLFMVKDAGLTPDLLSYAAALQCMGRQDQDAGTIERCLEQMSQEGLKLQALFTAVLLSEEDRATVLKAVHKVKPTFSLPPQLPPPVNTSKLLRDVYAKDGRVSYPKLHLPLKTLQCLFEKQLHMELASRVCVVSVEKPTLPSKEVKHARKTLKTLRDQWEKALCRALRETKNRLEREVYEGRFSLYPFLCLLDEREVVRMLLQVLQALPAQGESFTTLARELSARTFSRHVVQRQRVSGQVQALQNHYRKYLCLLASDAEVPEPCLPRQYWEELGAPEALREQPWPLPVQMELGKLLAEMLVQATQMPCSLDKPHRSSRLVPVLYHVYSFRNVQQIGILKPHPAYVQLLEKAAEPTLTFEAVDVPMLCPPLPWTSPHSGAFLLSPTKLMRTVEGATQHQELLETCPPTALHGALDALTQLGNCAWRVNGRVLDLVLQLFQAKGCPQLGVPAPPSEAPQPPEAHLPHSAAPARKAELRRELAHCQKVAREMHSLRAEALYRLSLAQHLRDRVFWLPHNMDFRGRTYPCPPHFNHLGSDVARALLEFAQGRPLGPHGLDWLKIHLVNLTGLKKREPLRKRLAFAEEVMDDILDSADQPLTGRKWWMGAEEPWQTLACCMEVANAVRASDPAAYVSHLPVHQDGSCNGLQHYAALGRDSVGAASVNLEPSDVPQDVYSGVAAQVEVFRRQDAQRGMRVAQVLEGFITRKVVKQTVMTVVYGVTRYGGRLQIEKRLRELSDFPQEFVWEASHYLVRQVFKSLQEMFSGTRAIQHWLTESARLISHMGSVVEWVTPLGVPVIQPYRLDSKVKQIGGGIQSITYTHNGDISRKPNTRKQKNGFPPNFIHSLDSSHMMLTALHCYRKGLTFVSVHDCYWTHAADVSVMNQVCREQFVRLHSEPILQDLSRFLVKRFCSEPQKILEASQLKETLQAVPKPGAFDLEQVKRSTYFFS

Ec-DdRP [1] = target: T2, Ec-DdRP (Escherichia coli, UniProt P0A8T7+P0A8V2)
T2 construct: gene rpoB; multisubunit RNAP without added sigma, in assembled elongation complex; expressed in E. coli T7 Express from pVS10, Ni-, heparin and Q-sepharose purified; with DNA-directed RNA polymerase subunit alpha; DNA-directed RNA polymerase subunit omega
T2 sequence (P0A7Z4 whole entry): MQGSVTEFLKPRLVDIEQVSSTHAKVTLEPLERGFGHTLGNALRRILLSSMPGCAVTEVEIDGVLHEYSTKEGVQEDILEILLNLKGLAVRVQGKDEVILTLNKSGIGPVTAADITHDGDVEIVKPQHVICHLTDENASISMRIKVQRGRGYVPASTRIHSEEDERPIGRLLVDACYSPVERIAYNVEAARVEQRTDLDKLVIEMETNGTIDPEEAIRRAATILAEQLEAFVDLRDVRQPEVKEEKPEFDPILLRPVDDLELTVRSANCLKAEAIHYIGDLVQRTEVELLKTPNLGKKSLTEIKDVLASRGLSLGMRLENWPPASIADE
T2 sequence (P0A8T7 whole entry): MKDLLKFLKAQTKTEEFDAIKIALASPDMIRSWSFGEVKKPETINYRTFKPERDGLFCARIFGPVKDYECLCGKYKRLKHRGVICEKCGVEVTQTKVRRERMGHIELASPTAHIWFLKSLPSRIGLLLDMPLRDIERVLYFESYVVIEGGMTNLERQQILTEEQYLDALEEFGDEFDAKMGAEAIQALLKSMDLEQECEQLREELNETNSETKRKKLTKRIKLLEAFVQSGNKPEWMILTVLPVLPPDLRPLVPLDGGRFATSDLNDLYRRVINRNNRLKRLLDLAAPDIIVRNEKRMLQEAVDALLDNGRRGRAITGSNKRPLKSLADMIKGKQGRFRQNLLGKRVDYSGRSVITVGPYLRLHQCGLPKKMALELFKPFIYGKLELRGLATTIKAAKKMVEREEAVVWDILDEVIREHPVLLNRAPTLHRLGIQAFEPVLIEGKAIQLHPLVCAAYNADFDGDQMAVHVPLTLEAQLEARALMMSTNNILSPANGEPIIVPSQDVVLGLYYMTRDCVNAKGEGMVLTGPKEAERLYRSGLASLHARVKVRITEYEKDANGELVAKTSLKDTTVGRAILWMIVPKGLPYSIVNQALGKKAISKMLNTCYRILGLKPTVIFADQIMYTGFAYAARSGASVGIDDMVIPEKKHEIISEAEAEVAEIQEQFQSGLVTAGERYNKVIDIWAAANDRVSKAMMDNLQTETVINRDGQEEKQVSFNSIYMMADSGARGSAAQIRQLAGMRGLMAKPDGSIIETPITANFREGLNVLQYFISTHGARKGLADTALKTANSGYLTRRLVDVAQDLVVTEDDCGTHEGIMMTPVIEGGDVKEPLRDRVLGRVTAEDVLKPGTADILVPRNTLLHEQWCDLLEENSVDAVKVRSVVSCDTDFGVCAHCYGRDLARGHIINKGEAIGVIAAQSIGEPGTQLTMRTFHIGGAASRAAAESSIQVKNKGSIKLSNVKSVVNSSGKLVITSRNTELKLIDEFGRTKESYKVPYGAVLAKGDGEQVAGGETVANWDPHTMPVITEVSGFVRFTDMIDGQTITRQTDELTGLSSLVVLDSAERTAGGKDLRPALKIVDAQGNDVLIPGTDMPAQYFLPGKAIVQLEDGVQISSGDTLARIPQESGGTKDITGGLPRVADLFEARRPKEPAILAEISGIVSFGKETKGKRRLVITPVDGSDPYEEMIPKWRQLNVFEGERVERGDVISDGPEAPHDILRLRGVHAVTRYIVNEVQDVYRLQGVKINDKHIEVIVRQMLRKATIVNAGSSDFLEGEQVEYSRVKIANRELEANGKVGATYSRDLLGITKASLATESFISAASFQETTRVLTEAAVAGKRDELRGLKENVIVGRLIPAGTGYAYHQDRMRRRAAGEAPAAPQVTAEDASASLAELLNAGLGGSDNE
T2 sequence (P0A8V2 whole entry): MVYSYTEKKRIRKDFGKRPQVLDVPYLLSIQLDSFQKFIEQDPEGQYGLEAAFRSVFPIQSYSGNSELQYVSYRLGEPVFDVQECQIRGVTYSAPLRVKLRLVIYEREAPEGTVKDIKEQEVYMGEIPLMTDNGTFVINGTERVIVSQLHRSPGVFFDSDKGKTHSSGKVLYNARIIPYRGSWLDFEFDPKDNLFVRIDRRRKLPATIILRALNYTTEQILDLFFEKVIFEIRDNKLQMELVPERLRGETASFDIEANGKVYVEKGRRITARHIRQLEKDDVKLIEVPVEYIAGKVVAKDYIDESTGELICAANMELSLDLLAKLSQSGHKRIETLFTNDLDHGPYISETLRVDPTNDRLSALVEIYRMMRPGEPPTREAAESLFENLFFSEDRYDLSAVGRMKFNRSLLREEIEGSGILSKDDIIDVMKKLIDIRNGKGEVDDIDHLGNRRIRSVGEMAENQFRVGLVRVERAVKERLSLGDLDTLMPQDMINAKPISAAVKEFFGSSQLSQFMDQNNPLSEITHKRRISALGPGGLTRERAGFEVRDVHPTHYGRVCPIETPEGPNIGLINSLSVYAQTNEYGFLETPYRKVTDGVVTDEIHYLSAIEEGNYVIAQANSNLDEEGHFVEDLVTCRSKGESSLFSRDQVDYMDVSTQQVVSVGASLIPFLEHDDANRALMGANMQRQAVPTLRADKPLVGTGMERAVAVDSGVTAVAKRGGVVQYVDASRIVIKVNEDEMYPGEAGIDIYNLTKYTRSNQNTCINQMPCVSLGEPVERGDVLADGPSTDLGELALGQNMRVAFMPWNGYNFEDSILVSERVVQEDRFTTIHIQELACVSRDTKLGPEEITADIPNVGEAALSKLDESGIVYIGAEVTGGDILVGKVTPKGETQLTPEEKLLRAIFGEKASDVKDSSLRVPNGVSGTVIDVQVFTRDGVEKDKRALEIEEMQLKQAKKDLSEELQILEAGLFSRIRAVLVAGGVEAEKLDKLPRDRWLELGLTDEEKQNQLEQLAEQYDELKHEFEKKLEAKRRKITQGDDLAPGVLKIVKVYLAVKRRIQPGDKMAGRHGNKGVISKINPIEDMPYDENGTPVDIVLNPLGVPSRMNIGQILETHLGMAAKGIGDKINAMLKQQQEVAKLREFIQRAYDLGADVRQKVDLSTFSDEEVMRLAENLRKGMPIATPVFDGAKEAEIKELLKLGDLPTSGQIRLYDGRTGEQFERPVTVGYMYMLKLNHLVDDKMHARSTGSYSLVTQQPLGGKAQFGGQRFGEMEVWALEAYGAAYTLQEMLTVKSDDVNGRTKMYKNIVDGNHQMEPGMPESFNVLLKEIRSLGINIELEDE
T2 sequence (P0A800 2-91, further chain): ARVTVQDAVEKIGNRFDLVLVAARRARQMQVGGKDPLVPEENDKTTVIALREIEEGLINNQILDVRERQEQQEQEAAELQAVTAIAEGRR

Ec-DdRP [2] = target: T2, Ec-DdRP; remark: listed apart in the source
[3] = elongation complex, FOR as A-substitute (incorporation rate 27 s^-1), 10 mM MgCl2, pH 7.5, 25 °C

In the case of `NC(=O)c1[nH]nc([C@@H]2O[C@H](COP(=O)(O)OP(=O)(O)OP(=O)(O)O)[C@@H](O)[C@H]2O)c1O` (mixture of isomers) [PYR 5′-triphosphate], the “single-nucleotide addition, denaturing PAGE” value (Mt-DdRP; incorporated in place of uridine) is reported as “all RNAPs in our set incorporated PYR in place of uridine”.
In the case of `Nc1ncnc2c1ncn2[C@@H]1O[C@H](COP(=O)(O)OP(=O)(O)OP(=O)(O)O)[C@@H](O)[C@H]1O` [ATP], the kon (Ec-DdRP [1]) is reported as 1.2e+06 to 1.5e+06 M⁻¹ s⁻¹ and the koff (Ec-DdRP [2]) is reported as 5.6 to 19 s⁻¹.
With `Nc1ncnc2c([C@@H]3O[C@H](COP(=O)(O)OP(=O)(O)OP(=O)(O)O)[C@@H](O)[C@H]3O)n[nH]c12` [FOR triphosphate] the kon (Ec-DdRP [1]; [3]) was 3.1e+06 to 6.6e+06 M⁻¹ s⁻¹, the “single-nucleotide addition, denaturing PAGE” value (Mt-DdRP; incorporated in place of adenine) was “FOR was incorporated in place of adenine by all RNAPs in our set” and the koff (Ec-DdRP [2]; [3]) was 74 to 220 s⁻¹.
